The text below walks through data of patent US11046690B2, “Pyridazinones and methods of use thereof” (Goldfinch Bio, Inc., priority 2018, dated 2021).

For one experiment, the target named is T1, TRPC5 (Homo sapiens, UniProt Q9UL62).
T1 construct: expressed in transfected cells
T1 sequence (Q9UL62 1-973): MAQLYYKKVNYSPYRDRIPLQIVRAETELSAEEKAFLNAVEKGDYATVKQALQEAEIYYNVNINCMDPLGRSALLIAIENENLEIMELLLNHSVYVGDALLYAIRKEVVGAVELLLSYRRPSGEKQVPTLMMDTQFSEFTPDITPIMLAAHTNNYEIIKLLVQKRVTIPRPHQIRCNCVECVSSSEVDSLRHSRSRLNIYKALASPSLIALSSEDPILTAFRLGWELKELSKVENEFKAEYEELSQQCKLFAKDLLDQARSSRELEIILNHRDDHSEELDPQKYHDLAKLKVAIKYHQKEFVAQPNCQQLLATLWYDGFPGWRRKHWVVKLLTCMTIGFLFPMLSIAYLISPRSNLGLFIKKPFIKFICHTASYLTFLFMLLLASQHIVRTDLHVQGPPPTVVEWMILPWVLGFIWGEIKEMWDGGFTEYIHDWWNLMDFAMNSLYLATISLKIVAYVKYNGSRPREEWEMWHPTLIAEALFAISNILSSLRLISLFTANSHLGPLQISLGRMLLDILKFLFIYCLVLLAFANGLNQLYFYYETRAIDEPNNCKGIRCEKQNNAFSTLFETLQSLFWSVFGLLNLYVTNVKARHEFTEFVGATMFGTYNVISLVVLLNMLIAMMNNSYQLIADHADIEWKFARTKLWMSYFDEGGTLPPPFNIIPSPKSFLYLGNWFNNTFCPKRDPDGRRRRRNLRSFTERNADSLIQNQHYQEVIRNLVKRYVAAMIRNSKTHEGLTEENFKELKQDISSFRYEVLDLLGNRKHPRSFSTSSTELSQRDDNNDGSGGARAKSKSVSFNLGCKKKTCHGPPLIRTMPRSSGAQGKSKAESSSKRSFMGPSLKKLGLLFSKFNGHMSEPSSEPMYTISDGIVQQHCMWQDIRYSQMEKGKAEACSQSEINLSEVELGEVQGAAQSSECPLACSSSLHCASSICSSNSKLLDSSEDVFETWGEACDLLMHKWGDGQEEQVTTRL
The experiment in a line: TRPC5 activity assay (FLIPR calcium fluorescence, Riluzole stimulation). Type of experiment: cell-based. The settings on record: HEK-TREx hTRPC5 cells, 30 μM Riluzole stimulation; read-out: TRPC5 (IC50 class). As to the method:
ICLN-1633 cells (HEK-TREx hTRPC5) expressing TRPC5 were generated as follows. Commercially available HekTrex-293 cells were seeded at 0.7×10^6 cells/well in a 1×6-well plate 24 hrs prior to transfection using 2 mL cell growth media containing no antibiotics (1× DMEM/high glucose (Hyclone #SH30022.02); 10% fetal bovine serum (Sigma) 2 mM sodium pyruvate, 10 mM HEPES). […] On day 2, 2 μg of plasmid DNA plus 6 μl of Xtreme-GENE HP reagent in Optimem (200 μl total volume) was prepared and incubated for 15 min at room temperature. This plasmid solution was then gently overlayed dropwise onto each well and the plate was gently swirled to mix complex with the media for approximately 30 seconds. Transfected cells were incubated at 37° C. in a 10%/CO2 incubator for 24 hrs. The transfected cells were harvested and transferred into 2×150 mm dishes containing cell growth media with no antibiotics at 37° C.
The next day selection was initiated to generate a stable pool by adding cell growth media containing 150 μg/mL Hygromycin and 5 μg/mL Blasticidin and cells were allowed to grow. Media with the selection agent was changed every 1-2 days as needed to remove dead cells. After 7 days, the hygromycin concentration was reduced to 75 μg/mL and cells growth was allowed to continue.
Single clones were selected as follows. The stable pool was diluted to 10 cells/mL and seeded (100 μl/well) into 24×96 well plates (˜1 cell/well) and allowed to grow for 7 days in cell growth media. Fresh media (100 μl) was added and the cells allowed to grow for another 1-2 weeks and then stored frozen or used immediately.
10-point dose response curves were generated using the Echo-550 acoustic dispenser. Compound source plates were made by serially diluting compound stocks to create 10 mM, 1 mM, and 0.1 mM solutions in DMSO into Echo certified LDV plates. The Echo then serially spotted 100%/DMSO stock solutions into source dose response plates to generate a 4-fold dilution scheme. 100%0/DMSO was added to the spotted dose response plates to bring the final volume to 5 μl. 300 nl of the dose response stock plate was then spotted into pre-incubation and stimulation assay plates. 50 μl of pre-incubation buffer and 100 μl of stimulation buffer was then added to the plates resulting in a final assay test concentration range of 30 μM to 0.0001 μM with a final DMSO concentration of 0.3%.
Human ICLN-1633 cells expressing were plated onto 384 well, black PDL-coated microplates and maintained in TRPC5 growth media the day prior to use for experiments. TRPC5 expression was induced by the application of 1 μg/mL tetracycline at the time of plating. […] Cells are incubated at room temperature, protected from light, for 60-90 minutes. After the incubation period, the dye is removed and replaced with 10 μl of EBSS. Cell, pre-incubation and stimulation plates are loaded onto the FLIPR-II and the assay is initiated. The FLIPR measures a 10 second baseline and then adds 10 μl of 2X compounds (or controls). Changes in fluorescence are monitored for an additional 5 minutes. After the 5 minute pre-incubation, 20 μl of 2X Riluzole (with 1X compound or controls) is added to the cell plate. The final Riluzole stimulation concentration in the assay is 30 μM. After the Riluzole addition, changes in fluorescence are monitored for an additional 5 minutes.
Compound modulation of TRPC5 calcium response was determined as follows. After the Englerin A, fluorescence was monitored for a 5-minute period. The maximum relative fluorescence response (minus the control response of 1 μM of an internal control compound known to maximally block TRPC5 calcium response, the “REF INHIB” in the formula below) was captured and exported from the FLIPR.
Compound effect is calculated as % inhibition using the following formula:
[formula] wherein “RFU” is the relative fluorescent units.

The test system of experiment [1] is PAN induced glomerular kidney injury. The experiment in a line: Puromycin aminonucleoside (PAN)-induced glomerular injury in rats. The format is in vivo, Sprague-Dawley rats. The settings on record: PAN-injured rats. An excerpt:
The objective of this study is to evaluate the dose-dependent effects of compound 100 on PAN induced glomerular kidney injury as indexed by albuminuria. Eighty (80), male Sprague-Dawley rats weighing approximately 125-150 g and approximately 5-6 weeks of age were acquired from Charles River. They were fed a standard chow diet (Harlan 8640), housed under standard conditions, and allowed to acclimate for at least 5 days prior to study inception. On D-2, rats were placed into weight-matched treatment groups and were placed, individually housed, into metabolic cages for the balance of the study. A 24 hour baseline (Day 0) urine was collected followed by a baseline blood collection via conscious tail venous puncture. Rats were then administered vehicle or test article. Two (2) hours following administration of vehicle or test agent on Day 0, rats received an administration of (5 ml/kg, s.c.) vehicle (sterile saline) or puromycin aminonucleoside (PAN; challenge agent; 75 mg/kg) dissolved in vehicle. Intermittent (Day 4, 7 and 10) 24 hour urine volumes were determined and samples (4 samples/animal/time point; 0.5 ml/sample) were obtained. Additionally, intermittent (Day 4, 7 and 10) blood samples were collected via conscious tail venous puncture 2 hours±1 minute post-AM dose. Immediately following the last blood collection, rats were anesthetized with isoflurane, tissues harvested, and animals sacrificed. Endpoint kidney weights and indices were obtained. Urine samples were immediately flash-frozen in liquid N2 and stored at −80° C. until analyzed. Whole blood samples collected on K3EDTA were processed appropriately for the production of plasma for PK measurements.

For experiment [2], the system named is AT1R transgenic rat model of FSGS. As to the kind of experiment: AT1R transgenic rat model of FSGS. The format is in vivo. The settings on record: AT1R transgenic rats, UniNX and AngII infusion, orally once daily 3 mg/kg or 10 mg/kg, up to 3 weeks. As to the method: The AT1R transgenic rat model of FSGS is characterized by podocyte-specific expression of human AT1R. […] See Zhou et al., Science (2017), vol. 358 (6368), 1332-1336. In the present study, pathophysiology in AT1R transgenic rats was accelerated with unilateral nephrectomy (UniNX) and minipump AngII infusion. Compound 100 was dosed orally once daily at 3 mg/kg or 10 mg/kg, and the urine protein creatinine ratio was determined at -1, 0, 1, 2, and 3 weeks of treatment. […] UniNX, AngII […], and compound 100 […] occurred at the time points indicated.

As a reminder, the IC50 is the point on the concentration scale where inhibition reaches its midpoint. For the compound `CC1Cc2c(ncnc2Oc2ccc(F)cc2Cl)CN1c1cn[nH]c(=O)c1Cl` (single isomer, unassigned) [Compound 117a], on TRPC5, the IC50 was over 1000 nM. Turning to `CC(c1ccc(F)cc1C(F)(F)F)c1ncnc2c1CCN(c1cn[nH]c(=O)c1Cl)C2` (single isomer, unassigned) [Compound 126, 4-Chloro-5-[4-[(1 S)-1-[4-fluoro-2-(trifluoromethyl)phenyl]ethyl]-5H,6H,7H,8H-pyrido[3,4-d]pyrimidin-7-yl]-2,3-dihydropyridazin-3-one], the IC50 on TRPC5 is under 50 nM. Still for that read-out and setting: the same measure for `CC(c1ccc(F)cc1C(F)(F)F)c1ncnc2c1CCN(c1cn[nH]c(=O)c1Cl)C2` (single isomer, unassigned) [Compound 126a]: 50 to 500 nM. Same read-out and setting: the same measure for `CC(O)c1nc2c(c(Oc3ccc(F)cc3C(F)(F)F)n1)CCN(c1cn[nH]c(=O)c1Cl)C2` (single isomer, unassigned) [Compound 129, 4-Chloro-5-[4-[4-fluoro-2-(trifluoromethyl)phenoxy]-2-[(1 S)-1-hydroxyethyl]-5H,6H,7H,8H-pyrido[3,4-d]pyrimidin-7-yl]-2,3-dihydropyridazin-3-one]: under 50 nM. Consider `CC(O)c1nc2c(c(Oc3ccc(F)cc3C(F)(F)F)n1)CCN(c1cn[nH]c(=O)c1Cl)C2` (single isomer, unassigned) [Compound 130], for which, on TRPC5, the IC50 was under 50 nM. Turning to `O=c1[nH]ncc(N2CCc3c(nc([C@@H](O)CO)nc3Oc3ccc(F)cc3C(F)(F)F)C2)c1Cl` (single isomer, unassigned) [Compound 135], the IC50 on TRPC5 is under 50 nM. Same read-out and setting: the figure for `O=c1[nH]ncc(N2CCc3c(nc([C@H](O)CO)nc3Oc3ccc(F)cc3C(F)(F)F)C2)c1Cl` (single isomer, unassigned) [Compound 137] is under 50 nM. For the compound `O=c1[nH]ncc(N2CCc3c(ncnc3Oc3ccc(F)cc3C(F)(F)F)C2)c1Cl` [Compound 100, 4-chloro-5-[4-[4-fluoro-2-(trifluoromethyl)phenoxy]-5H,6H,7H,8H-pyrido[3,4-d]pyrimidin-7-yl]-2,3-dihydropyridazin-3-one], the urinary albumin excretion result in experiment [1] (30 mg/kg once daily (QD), at 10 days) is listed as “Significant reductions”; in experiment [1] (30 mg/kg twice daily (BID), at 7 and 10 days) it was “Significant reductions”. Besides, in experiment [2], the “urine protein creatinine ratio” value is “efficacious”. As to `NC(=O)c1ncn([C@@H]2O[C@H](CO)[C@@H](O)[C@H]2O)c1O` [Mizoribine, reference compound], the albuminuria entry in experiment [1] (positive control compound) is recorded as “efficacious in reducing albuminuria”.
